Test results as given in patent publication US8658661B2, “Oxadiazole inhibitors of leukotriene production” (Boehringer Ingelheim International GmbH, priority 2010, dated 2014).

Experiments:
[1] = target: T1, recombinant human FLAP protein (Homo sapiens, UniProt P20292); test: FLAP binding assay (SPA, displacement of [125I]L-691,831); settings: membranes of sf9 cells expressing recombinant human FLAP; [125I]L-691,831 probe; read-out: FLAP binding IC50
T1 construct: made in house; host or cells: Sf9 insect cells (100,000×g membrane pellet used)
T1 sequence (P20292 1-161): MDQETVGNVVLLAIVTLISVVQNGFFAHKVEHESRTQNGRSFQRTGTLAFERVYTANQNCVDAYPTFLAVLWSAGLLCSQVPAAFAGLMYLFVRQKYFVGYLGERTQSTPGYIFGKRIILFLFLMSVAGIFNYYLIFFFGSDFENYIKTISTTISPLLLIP
Method: Assessment of Biological Properties 1. Binding Assay
Compounds are assessed for the ability to bind to FLAP in a binding assay that measures compound-specific displacement of an iodinated (^125I) FLAP inhibitor via a Scintillation Proximity Assay format (adapted from S. Charleson et al., Mol. Pharmacol., 1992, 41, 873-879).
Cell pellets produced from sf9 insect cells expressing recombinant human FLAP protein are resuspended in buffer A [15 mM Tris-HCl (pH 7.5), 2 mM MgCl2, 0.3 mM EDTA, 1 mM PMSF]. The cells are lysed with a Dounce homogenizer and the material is centrifuged at 10,000×g for 10 minutes. The supernatant is then collected and centrifuged at 100,000×g for 60 minutes. To prepare membrane protein for an assay, an aliquot of the 100,000×g pellet is resuspended in 1 ml of buffer A, Dounce homogenized, and finally subjected to polytron mixing (30 seconds). Membrane protein (25 μl, 5 μg) is mixed with WGA SPA beads (Amersham) and stirred for 1 h. […] (final concentrations: beads, 200 μg/well; protein, 5 μg/well; [^125I] probe, 0 08 nM/well (17 nCi/well). The plates are shaken for 2 h before reading on a Microbeta plate reader. Non-specific binding is determined by the addition of 10 μM cold L-691,831 compound.

[2] = test system: synthesis of LTB4 in human whole blood; test: Human whole blood assay (inhibition of LTB4 synthesis, calcimycin stimulated); type: cell-based; settings: heparinized human whole blood, calcimycin 20 μM, plasma LTB4
Method: Compounds are additionally tested in a human whole blood assay to determine their ability to inhibit the synthesis of LTB4 in a cellular system. Compounds are combined with heparinized human whole blood and incubated for 15 minutes at 37° C. Calcimycin (20 μM final, prepared in phosphate-buffered saline, pH 7.4) is then added and the mixture is incubated for another 30 minutes at 37° C. The samples are centrifuged for 5 min at low speed (1500×g) and the plasma layer is removed. Plasma LTB4 concentrations are then measured using an antibody-based homogenous time-resolved fluorescence method (CisBio, Bedford, Mass.).

| Compound | IC50 [1] [nM] | IC50 [2] [nM] |
| --- | --- | --- |
| CO[C@H]1CCN(C(=O)Cn2cc(-c3nc([C@@](C)(c4ccc(-c5cnc(N)nc5)cc4)C4CC4)no3)cn2)C1 [Example 221, 2-[4-(3-{(R)-1-[4-(2-Amino-pyrimidin-5-yl)-phenyl]-1-cyclopropyl-ethyl}-[1,2,4]oxadiazol-5-yl)-pyrazol-1-yl]-1-((S)-3-methoxy-pyrrolidin-1-yl)-ethanone] | 6.2 | 150 |
| CC(C)(O)CNc1cnc(-c2nc(C(C)(c3ccc(-c4cnc(N)nc4)cc3)C3CCC3)no2)cn1 (stereo not drawn) [Example 35, 1-{[5-(3-{1-[4-(2-aminopyrimidin-5-yl)phenyl]-1-cyclobutylethyl}-1,2,4-oxadiazol-5-yl)pyrazin-2-yl]amino}-2-methylpropan-2-ol] | 3.2 | 360 |
| CC(C)C(C)(c1ccc(-c2cnc(N)nc2)cc1)c1noc(NCC(C)(C)O)n1 (stereo not drawn) [Example 82, 1-[(3-{2-[4-(2-aminopyrimidin-5-yl)phenyl]-3-methylbutan-2-yl}-1,2,4-oxadiazol-5-yl)amino]-2-methylpropan-2-ol] | 13 | 220 |
| COCCN(C)C(=O)Cn1cc(-c2nc([C@@](C)(c3ccc(-c4cnc(N)nc4)cc3)C3CC3)no2)cn1 [Example 194, 2-[4-(3-{(R)-1-[4-(2-Amino-pyrimidin-5-yl)-phenyl]-1-cyclopropyl-ethyl}-[1,2,4]oxadiazol-5-yl)-pyrazol-1-yl]-N-(2-methoxy-ethyl)-N-methyl-acetamide] | 6 | 96 |
| C[C@@](c1ccc(-c2cnc(N)nc2)cc1)(c1noc(-c2cnn(CCN3CCCC3)c2)n1)C1CC1 [Example 215, 5-[4-((R)-1-Cyclopropyl-1-{5-[1-(2-pyrrolidin-1-yl-ethyl)-1H-pyrazol-4-yl]-[1,2,4]oxadiazol-3-yl}-ethyl)-phenyl]-pyrimidin-2-ylamine] | 3.6 | 28 |
| Cc1nc(N)cnc1-c1ccc(C(C)(c2noc(-c3cnn(CC(=O)N(C)C)c3)n2)C2CC2)cc1 (stereo not drawn) [Example 245, 2-[4-(3-{1-[4-(5-Amino-3-methyl-pyrazin-2-yl)-phenyl]-1-cyclopropyl-ethyl}-[1,2,4]oxadiazol-5-yl)-pyrazol-1-yl]-N,N-dimethyl-acetamide] | 28 | 310 |
| Cn1cc(-c2nc([C@@](C)(c3ccc(-c4cnc(N)nc4)cc3)C3CC3)no2)cn1 [Example 61, 5-(4-{(1R)-1-cyclopropyl-1-[5-(1-methyl-1H-pyrazol-4-yl)-1,2,4-oxadiazol-3-yl]ethyl}phenyl)pyrimidin-2-amine] | 1.3 | 15 |
| COCCn1cc(-c2nc([C@](C)(c3ccc(-c4cnc(N)nc4)cc3)C3CC3)no2)cn1 [Example 53, 5-{4-[(1S)-1-cyclopropyl-1-{5-[1-(2-methoxyethyl)-1H-pyrazol-4-yl]-1,2,4-oxadiazol-3-yl}ethyl]phenyl}pyrimidin-2-amine] | 27 | 450 |
| C[C@](c1ccc(-c2cnc(N)nc2)cc1)(c1noc(-c2cn[nH]c2)n1)C1CC1 [Example 49, 5-(4-{(1S)-1-cyclopropyl-1-[5-(1H-pyrazol-4-yl)-1,2,4-oxadiazol-3-yl]ethyl}phenyl)pyrimidin-2-amine] | 19 | 680 |
| C[C@@](c1ccc(-c2ccc(N)nc2)cc1)(c1noc(N2CCC(O)CC2)n1)C1CC1 [Example 282, 1-(3-{(R)-1-[4-(6-Amino-pyridin-3-yl)-phenyl]-1-cyclopropyl-ethyl}-[1,2,4]oxadiazol-5-yl)-piperidin-4-ol] | 6.5 | 44 |
| CC(C)(O)Cn1cc(-c2nc([C@@](C)(c3ccc(-c4ccc(N)nc4)cc3)C3CC3)no2)cn1 [Example 173, 1-[4-(3-{(R)-1-[4-(6-Amino-pyridin-3-yl)-phenyl]-1-cyclopropyl-ethyl}-[1,2,4]oxadiazol-5-yl)-pyrazol-1-yl]-2-methyl-propan-2-ol] | 2.4 | 31 |
| COCCNc1nc(C(C)(c2ccc(-c3cnc(N)nc3)cc2)C(C)C)no1 (stereo not drawn) [Example 81, 5-[4-(2-{5-[(2-methoxyethyl)amino]-1,2,4-oxadiazol-3-yl}-3-methylbutan-2-yl)phenyl]pyrimidin-2-amine] | 11 | 180 |
| Cc1nc(C)c(-c2nc(C(C)(c3ccc(-c4cnc(N)nc4)cc3)C(C)C)no2)s1 (stereo not drawn) [Example 153, 5-(4-{2-[5-(2,4-dimethyl-1,3-thiazol-5-yl)-1,2,4-oxadiazol-3-yl]-3-methylbutan-2-yl}phenyl)pyrimidin-2-amine] | 4.6 | 180 |
| COCCn1cc(-c2nc(C(C)(c3ccc(-c4cnc(N)nc4)cc3)C(C)C)no2)cn1 (stereo not drawn) [Example 158, 5-[4-(2-{5-[1-(2-methoxyethyl)-1H-pyrazol-4-yl]-1,2,4-oxadiazol-3-yl}-3-methylbutan-2-yl)phenyl]pyrimidin-2-amine] | 3.4 | 55 |
| CC(C)C(C)(c1ccc(-c2cnc(N)nc2)cc1)c1noc(-c2cnccn2)n1 (stereo not drawn) [Example 137, 5-(4-{3-methyl-2-[5-(pyrazin-2-yl)-1,2,4-oxadiazol-3-yl]butan-2-yl}phenyl)pyrimidin-2-amine] | 2.8 | 77 |
| CN(C)CCn1cc(-c2nc([C@@](C)(c3ccc(-c4cnc(N)nc4)cc3)C3CC3)no2)cn1 [Example 182, 5-[4-((R)-1-Cyclopropyl-1-{5-[1-(2-dimethylamino-ethyl)-1H-pyrazol-4-yl]-[1,2,4]oxadiazol-yl}-ethyl)-phenyl]-pyrimidin-2-ylamine] | 3.1 | 14 |
| Cc1cc(-c2ccc([C@](C)(c3noc(-c4cnn(CC(=O)N(C)C)c4)n3)C3CC3)cc2)cnc1N [Example 178, 2-[4-(3-{(R)-1-[4-(6-Amino-5-methyl-pyridin-3-yl)-phenyl]-1-cyclopropyl-ethyl}-[1,2,4]oxadiazol-5-yl)-pyrazol-1-yl]-N,N-dimethyl-acetamide] | 2.2 | 180 |
| CC(C)C(C)(c1ccc(-c2cnc(N)nc2)cc1)c1noc(-c2cnc(N3CCN(C)CC3)cn2)n1 (stereo not drawn) [Example 163, 5-[4-(3-methyl-2-{5-[5-(4-methylpiperazin-1-yl)pyrazin-2-yl]-1,2,4-oxadiazol-3-yl}butan-2-yl)phenyl]pyrimidin-2-amine] | 0.74 | 30 |
| Cc1nc(N)ncc1-c1ccc(C(C)(c2noc(-c3cnn(CC(=O)N(C)C)c3)n2)C2CC2)cc1 (stereo not drawn) [Example 240, 2-[4-(3-{1-[4-(2-Amino-4-methyl-pyrimidin-5-yl)-phenyl]-1-cyclopropyl-ethyl}-[1,2,4]oxadiazol-5-yl)-pyrazol-1-yl]-N,N-dimethyl-acetamide] | 15 | 190 |
| CC(C)(O)CNc1cnc(-c2nc([C@@](C)(c3ccc(-c4cnc(N)nc4)cc3)C3CC3)no2)cn1 [Example 50, 1-{[5-(3-{(1R)-1-[4-(2-aminopyrimidin-5-yl)phenyl]-1-cyclopropylethyl}-1,2,4-oxadiazol-5-yl)pyrazin-2-yl]amino}-2-methylpropan-2-ol] | 1.3 | 95 |
| CNC(=O)Cn1cc(-c2nc(C(C)(c3ccc(-c4cnc(N)nc4)cc3)C3CC3)no2)cn1 (stereo not drawn) [Example 60, 2-[4-(3-{1-[4-(2-aminopyrimidin-5-yl)phenyl]-1-cyclopropylethyl}-1,2,4-oxadiazol-5-yl)-1H-pyrazol-1-yl]-N-methylacetamide] | 4 | 140 |
| Cc1cc(-c2ccc([C@](C)(c3noc(-c4cnn(C)c4)n3)C3CC3)cc2)cnc1N [Example 185, 5-(4-{(R)-1-Cyclopropyl-1-[5-(1-methyl-1H-pyrazol-4-yl)-[1,2,4]oxadiazol-3-yl]-ethyl}-phenyl)-3-methyl-pyridin-2-ylamine] | 1.9 | 28 |
| Cc1nc(-c2ccc([C@](C)(c3noc(-c4cnn(CC(=O)N(C)C)c4)n3)C3CC3)cc2)cnc1N [Example 177, 2-[4-(3-{(R)-1-[4-(5-Amino-6-methyl-pyrazin-2-yl)-phenyl]-1-cyclopropyl-ethyl}-[1,2,4]oxadiazol-5-yl)-pyrazol-1-yl]-N,N-dimethyl-acetamide] | 8.9 | 66 |
| CC(C)[C@@](C)(c1ccc(-c2cnc(N)nc2)cc1)c1noc(-c2ccn(C)n2)n1 [Example 17, 5-(4-{(2S)-3-methyl-2-[5-(1-methyl-1H-pyrazol-3-yl)-1,2,4-oxadiazol-3-yl]butan-2-yl}phenyl)pyrimidin-2-amine] | 24 | 510 |
